Measurements from ChEMBL document CHEMBL1150810, “Structure and neurotrophic activity of seco-prezizaane-type sesquiterpenes from Illicium merrillianum” (J Nat Prod, 2001).
Active and inactive are the calls of the source. No cut-off for these calls is given here.

test system: Cortical neurone; assay: Neurotrophic activity in Sprague-Dawley rat cortical neurons assessed as promotion of neurite outgrowth at 0.1 to 10 uM; assay type: functional

| SMILES | Activity |
| --- | --- |
| C[C@@H]1C[C@@H](O)[C@@]2(O)[C@@]13C[C@@]1(O)OC(OC[C@@]2(C)[C@@]1(C)O)[C@@H]3O | inactive |
| C[C@@H]1CC[C@@]2(O)C13CC(=O)C1(C)C2(C)CO[C@]1(OC(=O)c1ccccc1)[C@@H]3O | inactive |
| C[C@@H]1CC=C2[C@@]13C[C@@]1(O)OC(OC[C@@]2(C)[C@@]1(C)O)[C@@H]3O | inactive |
| C[C@@H]1CC[C@@]2(O)[C@@]13C[C@@]1(O)OC(OC[C@@]2(C)[C@@]1(C)O)[C@@H]3O | inactive |
| CC1=CC[C@]2(O)[C@@]3(C)COC4O[C@](O)(C[C@@]12[C@H]4O)[C@]3(C)O | inactive |
| C[C@@H]1CC[C@@]2(O)C13CC(=O)C1(C)C2(C)CO[C@]1(O)[C@@H]3O | Active |
